Here are results for 1 substance from US20220389420A1, “AGENTS FOR THE TREATMENT OF PATIENTS WITH NSCLC AND METHODS TO PREDICT RESPONSE” (CENTRE NATIONAL DE LA RECHERCHE SCIENTIFIQUE, priority 2016, published 2022).

The subject of data set [1] is A549 cells. Kind of data set: Functional genetic screen for miRNAs inducing cisplatin resistance. Conditions: pre-miR library transfected two days, then cisplatin 60 μM three days, Cell Titer Glow assay. The format is cell-based. How it is done: A549 cells were transfected with the pre-miR library for two days and the transfected cells were then exposed to cisplatin at 60 μM for three days. Cell viability was measured in single well using Cell Titer Glow assay.
(A): Plot of normalized viability versus −log10 FDR-adjusted P-value for all miRNAs overexpressed in A549 cells. Vertical dashed lines denote the selected normalized viability cutoff, while the Horizontal line denotes the 0.01 selected FDR-adjusted P-value cutoff. Each dot represents a miRNA. Dots surrounded in the upper right quadrant represent miRNAs associated with cisplatin resistance at the chosen cutoffs. The standardized residual viability of the miR-24-3p miRNA was estimated at 4.9512.
Functional genetic screen. Mimics were transfected in authenticated A549 lung adenocarcinoma cell line in 96 well plate format. 48 h following transfection, cells were exposed to cisplatin at 60 μM (2 times DL50; DL50 corresponding to the drug concentration lethal to 50% of the tumor cells) for three days. Viability was assessed using the cell titer glo assay (Promega). […]
miRNA candidate selection. miRNA candidates were selected for further analysis based on statistical significance (p<0.01) and degree of resistance induced (assessed by viability after drug exposure, normalized viability above 3).
For orientation: ATP-based viability assays read luminescence as a measure of living cells.

The next data set concerns H1299 cells. Briefly: Cisplatin resistance validation in H1299 cells. It is filed as cell-based. The settings on record: H1299, homozygous partial deletion of the TP53 gene. The text has this:
(A) Kill curve of H1299 cells (with a homozygous partial deletion of the TP53 gene) overexpressing miR-24-3p or a miRNA control and exposed to increasing dose of cisplatin.
(§1) (B) Validation of the effects of cisplatin in two LUAD cell lines, H1299 (with a homozygous partial deletion of the TP53 gene) and H1975 (homozygous for the c.818G<A mutation of the TP53 gene).
(§2) Transfection. Pre-miR-24-3p, and control miRNA (miR-Neg #1) were purchased from Life technologies. For miR-24-3p knockdown experiments, LNA anti-miR-24-3p and LNA negative control were ordered from Exiqon. siRNA directed against BIM, PUMA, PNPO and PDXK were purchased from Life technologies. A549 and H1299 cells were grown in 10% FCS in DMEM and transfected at 30 to 40% confluency in 6-12- or 96 well plates using Lipofectamin RNAi MAX™ (Life technologies) with pre-miRNA, siRNAs LNA inhibitors at a final concentration of 5 nM unless indicated.
Functional genetic screen validation for miR-24-3p. Data were confirmed independently on a distinct lung adenocarcinoma cell line (H1299). Specificity to cisplatin resistance was assessed using docetaxel and vinorelbine.

Data set [2] deals with A549 cells. Briefly: DNA damage response induced by cisplatin (nuclear foci, confocal microscopy). The format is cell-based. The settings on record: 7 h following cisplatin exposure, miRNA overexpression. As for the experimental part:
A549 cells overexpressing miR-24-3p were exposed to cisplatin for 7 h and nuclear foci of (i) phosphorylated histone H2A.X at SER139 (y-HAX) and (ii) phosphorylated ATM at Ser1981 (p-ATM) were assessed by confocal microscopy.
(C): percentage of cells (n=3) exposed to cisplatin and containing more than five nuclear foci of y-HAX and phosphor-ATM, respectively after miR-24-3p overexpression.
Immunofluorescence analysis. A549 cells were grown on a Round Glass Coverslips Ø16 mm (thermo scientific) placed inside a 12 Multiwell Plate. Coverslips slides were washed in phosphate-buffered saline and fixed in 4% paraformaldehyde for 15 min, cells were then permeated using 0.1% Triton X-102 (Agilent Technologies) for 10 min. and blocked with PBS solution containing BSA (3%) for 30 min. Incubation with primary antibodies was performed in a blocking solution BSA (1%) at 37° C. for 1 h. After three washes with PBS, cells were incubated with secondary antibodies. Forty five min later, Coverslips slides were fixed on microscope slides using ProLong Gold Antifade Reagent with DAPI (Invitrogen). Fluorescence was viewed with an FV10i Olympus confocal scanning microscope.

The test system of the next data set is human BIM 3′UTR. Briefly: Luciferase assay, BIM 3′UTR psiCHECK-2 construct in HEK293 cells. Conditions: two days after co-transfection, versus pre-miR-Neg. It is filed as cell-based. As for the experimental part:
(§3) (B): Results of luciferase assays in HEK293 cells transfected with the indicated constructions and pre-miR-24-3p or control miRNA.
(§4) Cells were harvested two days after transfection and luciferase activity were analysed. All renilla luciferase activities were normalized with firefly luciferase activity. **p<0.01.
(§5) Luciferase assay. Molecular constructs were made in psiCHECK-2 (Promega) by cloning behind the Renilla luciferase in the XhoI and NotI restrictions sites, annealed oligonucleotides derived from BIM, PUMA 3′ UTR. HEK293 cells were plated into 96-well and cotransfected using lipofectamin 2000 (Invitrogen) with 0.2 μg of psiCHECK-2 plasmid construct and pre-miR-24-3p or control miRNA at different concentrations. 48 hours after transfection, Firefly and Renilla Luciferase activities were measured using the Dual-Glo Luciferase assay (Promega).

In a further data set the test system is H1975 cells. Briefly: Cisplatin resistance validation in H1975 cells. It is filed as cell-based. The settings on record: H1975, homozygous c.818G>A mutation of the TP53 gene.
Source text: as §1

For a further data set, the system named is PUMA 3′UTR. Briefly: Luciferase assay, PUMA 3′UTR psiCHECK-2 construct in HEK293 cells. The settings on record: two days after co-transfection, versus pre-miR-Neg. The format is cell-based, human. How it is done: as §3, §4, §5
In data set [3] the test system is A549 cells. Briefly: Cisplatin sensitivity of A549 cells overexpressing miRNA (Annexin V/PI, ATP-based viability). It is filed as cell-based. As for the experimental part: A549 cells were transfected with pre-miR-24-3p for 2 days and the transfected cells were then exposed to either cisplatin or vinorelbin.
(A): Annexin V/PI staining of A549 cells overexpressing miR-24-3p and exposed to 60 μM cisplatin for 24 h.
(B): Vinorelbin dose response analysis of A549 cells overexpressing miR-24-3p. An ATP-based assay was used to assess cell viability.
as §2
Annexin V assay. Annexin-V-FITC apoptosis detection kit (Life technologies) was used to detect apoptotic activity. […] Annexin-V-FITC binding was determined by flow cytometry (excitation wavelength of 488 nm; emission wavelength of 530 nm) using the FITC signal detector (FL1), and propidium iodide staining was detected by the phycoerythrin emission signal detector (FL2).

For data set [4], the system named is A549 cells. Kind of data set: Caspase 3 dependent apoptotic response induced by cisplatin (Western blot). It is filed as cell-based. Conditions: miRNA overexpression in A549 cells. In general terms: A western blot detects proteins with antibodies after separation by electrophoresis.

The substance “pre-miR-24-3p: miRNA mimic purchased from Life technologies, used to overexpress miR-24-3p (UGGCUCAGUUCAGCAGGAACAG, SEQ ID No:1) (listed as RNA, chemistry not given here)” gave a standardized residual viability in the data set on A549 cells [1] of 4.9512. Further, the cisplatin resistance entry in the data set on H1299 cells and in the data set on H1975 cells was “contributed to cisplatin resistance independently of p53” each time. Besides, the ATM signaling entry with A549 cells [2] is recorded as “decreased ATM signaling”. Besides, the “DNA damage (phospho-yH2AX nuclear foci)” value with A549 cells [2] is listed as “less DNA damage”. Moreover, the “direct targeting of BIM 3′UTR (renilla luciferase normalized with firefly)” value with human BIM 3′UTR was “direct targets”. Also, the “direct targeting of PUMA 3′UTR (renilla luciferase normalized with firefly)” value in the data set on PUMA 3′UTR is “direct targets”. Moreover, the “resistance to platinum based-compounds (cisplatin, carboplatin, oxaliplatin)” value in the data set on A549 cells [3] (A549 cells overexpressing the miRNA, comparison with vinorelbin treatment) was “strongly resistant”. Besides, the response to cisplatin result in the data set with A549 cells [3] (A549 cells transfected with pre-miR, versus cells not overexpressing miR-24-3p) is recorded as “the response to cisplatin was lesser”. Also, in the data set on A549 cells [4], the “caspase 3 dependent apoptotic response induced by cisplatin” value was “strongly inhibits”.
